Laboratory results reported in US20230165251A1, “SUBSTITUTED TOLYL FUNGICIDES AND THEIR MIXTURES” (FMC Corporation, priority 2020, published 2023).
Like-named read-outs stand apart in the source and are kept apart here.

Columns and labels:
[1] = test system: Botrytis cinerea; experiment: Test E: preventive spray on tomato seedlings, tomato Botrytis; type: in vivo; conditions: Rate 250 ppm
Source text: (§1) General protocol for preparing test suspensions for Tests A-F: the test compounds were first dissolved in acetone in an amount equal to 3% of the final volume and then suspended at the desired concentration (in ppm) in acetone and purified water (50/50 mix by volume) containing 250 ppm of the surfactant PEG400 (polyhydric alcohol esters). The resulting test suspensions were then used in Tests A-F.
(§2) The test suspension was sprayed to the point of run-off on tomato seedlings. The following day the seedlings were inoculated with a spore suspension of Botrytis cinerea (the causal agent of tomato Botrytis) and incubated in a saturated atmosphere at 20° C. for 48 h, and then moved to a growth chamber at 24° C. for 3 days, after which time visual disease ratings were made.
(§3) A rating of 100 indicates 100% disease control and a rating of 0 indicates no disease control (relative to the controls). A dash (-) indicates the compound was not tested.

[2] = test system: Blumeria graminis f. sp. tritici; experiment: Test C: preventive spray on wheat seedlings, wheat powdery mildew; type: in vivo; conditions: Rate 250 ppm
Source text: as §1
The test suspension was sprayed to the point of run-off on wheat seedlings. The following day the seedlings were inoculated with a spore dust of Blumeria graminis f. sp. tritici, (also known as Erysiphe graminis f. sp. tritici, the causal agent of wheat powdery mildew) and incubated in a growth chamber at 20° C. for 8 days, after which time visual disease ratings were made.
as §3

[3] = test system: Phakopsora pachyrhizi; experiment: Test D: preventive spray on soybean seedlings, Asian soybean rust; type: in vivo; conditions: for pest or weed control at 10 ppm: Phakopsora pachyrhizi, 216 h, Rate 10 ppm, read-out: Test D disease control rating
Source text: as §1
(§4) The test solution was sprayed to the point of run-off on soybean seedlings. The following day the seedlings were inoculated with a spore suspension of Phakopsora pachyrhizi (the causal agent of Asian soybean rust) and incubated in a saturated atmosphere at 22° C. for 24 h and then moved to a growth chamber at 22° C. for 8 days, after which time visual disease ratings were made.
as §3

[4] = test system: Alternaria solani; experiment: Test F: preventive spray on tomato seedlings, tomato early blight; type: in vivo
Source text: as §1
as §2, with “Alternaria solani” for “Botrytis cinerea”, “early blight)” for “Botrytis)”, “27°” for “20°”, “20°” for “24°”
as §3

[5] = test system: Puccinia recondita f. sp. tritici; experiment: Test B: preventive spray on wheat seedlings, wheat leaf rust; type: in vivo; conditions: for pest or weed control at 10 ppm: Puccinia recondita, 192 h, Rate 10 ppm, read-out: Test B disease control rating
Source text: as §1
The test solution was sprayed to the point of run-off on wheat seedlings. The following day the seedlings were inoculated with a spore suspension of Puccinia recondita f. sp. tritici (the causal agent of wheat leaf rust) and incubated in a saturated atmosphere at 20° C. for 24 h, and then moved to a growth chamber at 20° C. for 7 days, after which time disease ratings were made.
as §3

[6] = test system: Zymoseptoria tritici; experiment: Test A: preventive spray on wheat seedlings, wheat leaf blotch; type: in vivo; conditions: Rate 250 ppm
Source text: as §1
The test solution was sprayed to the point of run-off on wheat seedlings. The following day the seedlings were inoculated with a spore suspension of Zymoseptoria tritici (the causal agent of wheat leaf blotch) and incubated in a saturated atmosphere at 24° C. for 48 h, and then moved to a growth chamber at 20° C. for 17 days, after which time disease ratings were made.
as §3

[7] = test system: Phakopsora pachyrhizi; experiment: Test G: Compound 41 or 63 alone and in mixtures on soybean seedlings, Asian soybean rust, Colby synergy; type: in vivo; conditions: Phakopsora pachyrhizi, read-out: Test G Obsd; for pest or weed control at 0.403 ppm: Compound 63 0.403 ppm alone; for pest or weed control at 0.652 ppm: Compound 63 0.652 ppm alone; for pest or weed control at 0.346 ppm: Compound 41 0.346 ppm alone; for pest or weed control at 0.764 ppm: Compound 41 0.764 ppm alone
Source text: The general protocol for preparing test compositions for TEST G was as follows: Compound 41, Compound 63, N-(2,2,2-trifluoroethyl)-2-[[4-[5-(trifluoromethyl)-1,2,4-oxadiazol-3-yl]phenyl]methyl]-4-oxazolecarboxamide (b54.11a), ethyl 1-[[4-[[(1Z)-2-ethoxy-3,3,3-trifluoro-1-propen-1-yl]oxy]phenyl]methyl]-1H-pyrazole-4-carboxylate (b54.11c), ethyl 1-[[4-[[2-(trifluoromethyl)-1,3-dioxolan-2-yl]methoxy]phenyl]methyl]-1H-pyrazole-4-carboxylate (b54.11d), azoxystrobin, benzovindiflupyr, bixafen, chlorothalonil, cyproconazole, epoxiconazole, fenpropidin, fenpropimorph, fluindapyr, flutriafol, fluxapyroxad, inpyrfluxam, picoxystrobin, prothioconazole, pydiflumetofen, tebuconazole and trifloxystrobin were obtained as unformulated, technical-grade materials. Copper hydroxide and mancozeb was obtained as a formulated product marketed under the trademarks KOCIDE 3000 and MANZATE, respectively. Unformulated materials were first dissolved in acetone and then suspended at the desired concentration (in ppm) in acetone and purified water (50/50 mix by volume) containing 250 ppm of the surfactant Trem® 014 (polyhydric alcohol esters). Formulated materials were dispersed in sufficient water to give the desired concentration, and neither organic solvent nor surfactant was added to the suspension. The resulting test mixtures were then used in TEST G. The tests were run on four individual plants and the results reported as the mean average of the four plants.
The presence of a synergistic effect between two active ingredients was established with the aid of the Colby equation (see Colby, S. R. “Calculating Synergistic and Antagonistic Responses of Herbicide Combinations”, Weeds, (1967), 15, 20-22):
Using the method of Colby, the presence of a synergistic interaction between two active ingredients is established by first calculating the predicted activity, p, of the mixture based on activities of the two components applied alone. If p is lower than the experimentally established effect, synergism has occurred. In the equation above, A is the fungicidal activity in percentage control of one component applied alone at rate x. The B term is the fungicidal activity in percentage control of the second component applied at rate y. The equation estimates p, the expected fungicidal activity of the mixture of A at rate x with B at rate y if their effects are strictly additive and no interaction has occurred.
as §4, with “mixture” for “solution”
Results for TEST G are given below in Tables B-1 through J-1 for Compound 41, and Tables B-2 through J-2 for Compound 63. Each table corresponds to a set of evaluations performed together at the same time. In each table, a rating of 100 indicates 100% disease control and a rating of 0 indicates no disease control (relative to the controls). Columns labeled “Obsd” indicate the average of results observed from test run on four individual plants. Columns labeled “Exp” indicate the expected value for each treatment mixture using the Colby equation.

Q: Which “Test E disease control rating” value [1] does the source give for `COC(=O)NCc1cc(-c2cn(-c3c(F)cc(F)cc3Cl)nn2)ccc1C` [compound 122] here?
A: 0%

Q: What about the “Test C disease control rating” value [2] of the same molecule?
A: 0%

Q: What about the “Test D disease control rating” value ([3]; Rate 250 ppm) of the same molecule?
A: 100%

Q: And the “Test F disease control rating” value ([4]; Rate 250 ppm)?
A: 0%

Q: And the “Test B disease control rating” value ([5]; Rate 250 ppm)?
A: 99%

Q: What about the “Test A disease control rating” value [6] of the same molecule?
A: 71%

Q: With `COC(=O)NCc1cc(-c2ccn(-c3c(F)cc(C(F)(F)F)cc3F)n2)ccc1C` [Compound 64, methyl N-[[5-[1-[2,6-difluoro-4-(trifluoromethyl)phenyl]-1H-pyrazol-3-yl]-2-methylphenyl]methyl]carbamate] as the molecule, how does the “Test F disease control rating” value ([4]; Rate 10 ppm) read?
A: 0%

Q: Which results are given for `COC(=O)NNc1cc(-c2ccn(-c3c(F)cc(Cl)cc3F)n2)ccc1C` [Compound 153]?
A: melting point: 153 to 156 °C; pest or weed control at 10 ppm [3]: 91%; pest or weed control at 10 ppm [5]: 68%

Q: Which “Test F disease control rating” value ([4]; Rate 250 ppm) does the source give for `COC(=O)NCc1cc(-c2cnn(-c3c(F)cc([N+](=O)[O-])cc3F)n2)ccc1C` [Compound 118, methyl N-[[5-[2-(2,6-difluoro-4-nitrophenyl)-2H-1,2,3-triazol-4-yl]-2-methylphenyl]methyl]carbamate] here?
A: 0%

Q: Which results are given for `CO/N=C(\C)c1cc(F)c(-n2ncc(-c3ccc(C)c(CNC(=O)OC)c3)n2)c(F)c1` [Compound 142, methyl (E)-N-[[5-[2-[2,6-difluoro-4-[1-(methoxyimino)ethyl]phenyl]-2H-1,2,3-triazol-4-yl]-2-methylphenyl]methyl]carbamate]?
A: melting point: 104 to 108 °C; pest or weed control at 10 ppm [3]: 100%; pest or weed control at 10 ppm [5]: 86%

Q: Which “Test F disease control rating” value ([4]; Rate 10 ppm) does the source give for `COC(=O)NCc1cc(-c2ccn(-c3c(F)cc(Cl)cc3F)n2)ccc1C` [Compound 6, methyl N-[[5-[1-(4-chloro-2,6-difluorophenyl)-1H-pyrazol-3-yl]-2-methylphenyl]methyl]carbamate] here?
A: 40%

Q: For `COC(=O)NCc1cc(-c2ncn(-c3c(F)cc([N+](=O)[O-])cc3F)n2)ccc1C` [Compound 107], which “Test F disease control rating” value ([4]; Rate 250 ppm) is on record?
A: 0%

Q: For `COC(=O)NCc1cc(-c2ccn(-c3c(F)cc(C(C)C)cc3F)n2)ccc1C` [Compound 63, methyl N-[[5-[1-[2,6-difluoro-4-(1-methylethyl)phenyl]-1H-pyrazol-3-yl]-2-methylphenyl]methyl]carbamate], which pest or weed control at 0.403 ppm ([7]; Table B-2) is on record?
A: 34%

Q: And the pest or weed control at 0.652 ppm ([7]; Table B-2)?
A: 68%

Q: And the pest or weed control at 0.403 ppm ([7]; Table C-2)?
A: 15%

Q: What about the pest or weed control at 0.652 ppm ([7]; Table C-2) of the same molecule?
A: 46%

Q: And the “Test F disease control rating” value ([4]; Rate 10 ppm)?
A: 85%

Q: For `COC(=O)NCc1cc(-c2ccn(-c3c(F)cc(C4CC4)cc3F)n2)ccc1C` [Compound 41, methyl N-[[5-[1-(4-cyclopropyl-2,6-difluorophenyl)-1H-pyrazol-3-yl]-2-methylphenyl]methyl]carbamate], which pest or weed control at 0.346 ppm ([7]; Table B-1) is on record?
A: 29%

Q: And the pest or weed control at 0.764 ppm ([7]; Table B-1)?
A: 62%

Q: And the pest or weed control at 0.346 ppm ([7]; Table C-1)?
A: 19%

Q: What about the pest or weed control at 0.764 ppm ([7]; Table C-1) of the same molecule?
A: 45%

Q: With `COC(=O)NCc1cc(-c2ccn(-c3c(F)cc(OC(F)F)cc3F)n2)ccc1C` [Compound 15, methyl N-[[5-[1-[4-(difluoromethoxy)-2,6-difluorophenyl]-1H-pyrazol-3-yl]-2-methylphenyl]methyl]carbamate] as the molecule, how does the “Test F disease control rating” value ([4]; Rate 10 ppm) read?
A: 0%
